Results: patent US20050101595A1, “N-containing cycloalkyl-substituted amino-thiazole derivatives and pharmaceutical compositions for inhibiting cell proliferation and methods for their use” (PFIZER INC., priority 2003, published 2005)

What was measured:
[1] = biological target: CDK2/Cyclin A (Homo sapiens, UniProt P24941); test: Inhibition of CDK2/Cyclin A Retinoblastoma Kinase Activity; format: biochemical; conditions: at 0.03 μM
Procedure, shortened: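 Baculovirus-expressed CDK2 complexed with proteolyzed cyclin A (10 or 19 nM), Rb fragment substrate, 25 μM [32P/33P]ATP, HEPES pH 7.4, 30 °C for 60 or 75 min under initial-rate conditions. Filter capture and phosphorimager readout; apparent Ki fitted to competitive or tight-binding competitive inhibition.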

[2] = biological target: human CDK4 and genetically truncated (1-264) cyclin D3 (Homo sapiens, UniProt P11802); test: Inhibition of CDK4/Cyclin D Retinoblastoma Kinase Activity; format: biochemical; conditions: at 0.03 μM
Chain of human CDK4 and genetically truncated (1-264) cyclin D3 (P11802 whole entry, the tested form may be a part): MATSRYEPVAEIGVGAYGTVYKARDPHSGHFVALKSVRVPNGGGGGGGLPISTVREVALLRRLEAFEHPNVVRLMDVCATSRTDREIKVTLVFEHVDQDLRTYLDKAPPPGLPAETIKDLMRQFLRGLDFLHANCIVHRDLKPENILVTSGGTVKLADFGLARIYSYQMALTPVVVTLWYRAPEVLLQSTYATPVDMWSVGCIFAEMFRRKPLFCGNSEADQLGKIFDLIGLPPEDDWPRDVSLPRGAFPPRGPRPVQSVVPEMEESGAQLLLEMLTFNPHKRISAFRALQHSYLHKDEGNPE
Chain of human CDK4 and genetically truncated (1-264) cyclin D3 (P30281 1-264 partner): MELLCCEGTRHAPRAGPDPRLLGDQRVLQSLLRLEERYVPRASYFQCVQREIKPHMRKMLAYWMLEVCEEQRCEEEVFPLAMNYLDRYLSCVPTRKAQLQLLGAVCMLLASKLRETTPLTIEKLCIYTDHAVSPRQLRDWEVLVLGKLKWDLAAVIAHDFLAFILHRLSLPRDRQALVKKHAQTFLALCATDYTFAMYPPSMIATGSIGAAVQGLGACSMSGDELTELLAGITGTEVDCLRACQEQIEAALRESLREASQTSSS
Procedure, shortened: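 Human CDK4/truncated cyclin D3 (1-264) complex from baculovirus-infected insect cells, 5 nM, phosphorylating Rb fragment (residues 386-928, His-tagged) with 25 μM [32/33P]ATP in HEPES pH 7.4, MgCl2, 2% DMSO at 30° C. for 20 min (60 min for tight binders). Filter-captured radioactivity by phosphorimager; apparent Ki from competitive or tight-binding fits.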

[3] = tested on: HCT-116 cell line; test: Inhibition of cell growth, tetrazolium salt (MTT) assay; format: cell-based; conditions: HCT-116 cells
Procedure, shortened: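 Growth inhibition is scored relative to cells receiving only 0.5% (v/v) DMSO. Plated cells rest 4 h, then take compound for three to five days at 37° C; MTT reduction to formazan is read at 540 nm.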

SMILES | CDK2 % Inhibition at 0.03 μM [1] | CDK4 % Inhibition at 0.03 μM [2] | HCT-116 % Inhibition at 0.1 μM [3] | HCT-116 5 Inhibition at 0.25 μM [3]
COc1cccc(C(=O)N2CCC(Nc3nc(N)c(C(=O)c4c(F)cccc4F)s3)CC2)c1OC [Example R115] | 42% | 58% | 0% | 49
COc1ccc(C(=O)N2CCC(Nc3nc(N)c(C(=O)c4c(F)cccc4F)s3)CC2)c(OC)c1 [Example R116] | 49% | 67% | 9% | 44
COc1ccc(OC)c(C(=O)N2CCC(Nc3nc(N)c(C(=O)c4c(F)cccc4F)s3)CC2)c1 [Example R117] | 53% | 66% | 7% | 45
COc1cccc(OC)c1C(=O)N1CCC(Nc2nc(N)c(C(=O)c3c(F)cccc3F)s2)CC1 [Example R118] | 36% | 33% | 7% | 47
CCOc1ccccc1C(=O)N1CCC(Nc2nc(N)c(C(=O)c3c(F)cccc3F)s2)CC1 [Example R119] | 27% | 31% | 3% | 53
Nc1nc(NC2CCN(C(=O)c3cc(Cl)ccc3O)CC2)sc1C(=O)c1c(F)cccc1F [Example R120] | 18% | 4% | 0% | 47
COc1ccc(O)c(C(=O)N2CCC(Nc3nc(N)c(C(=O)c4c(F)cccc4F)s3)CC2)c1 [Example R121] | 57% | 60% | 0% | 37
Cc1ccc(O)c(C(=O)N2CCC(Nc3nc(N)c(C(=O)c4c(F)cccc4F)s3)CC2)c1 [Example R122] | 61% | 67% | 0% | 48
Nc1nc(NC2CCN(C(=O)c3ccccc3-c3ccccc3)CC2)sc1C(=O)c1c(F)cccc1F [Example R123] | 5% | 39% | 0% | 38
Nc1nc(NC2CCN(C(=O)c3ccccc3C(F)(F)F)CC2)sc1C(=O)c1c(F)cccc1F [Example R124] | 18% | 38% | 0% | 35
Cc1cccc(C(=O)N2CCC(Nc3nc(N)c(C(=O)c4c(F)cccc4F)s3)CC2)c1C [Example R125] | 18% | 33% | 0% | 42
Cc1ccc(C(=O)N2CCC(Nc3nc(N)c(C(=O)c4c(F)cccc4F)s3)CC2)c(C)c1 [Example R126] | 43% | 57% | 0% | 33
Cc1cc(C)c(C(=O)N2CCC(Nc3nc(N)c(C(=O)c4c(F)cccc4F)s3)CC2)c(C)c1 [Example R127] | 28% | 20% | 0% | 36
Cc1ccc(C)c(C(=O)N2CCC(Nc3nc(N)c(C(=O)c4c(F)cccc4F)s3)CC2)c1 [Example R128] | 14% | 7% | 0% | 56
Nc1nc(NC2CCN(C(=O)c3ccc(Cl)c(Cl)c3)CC2)sc1C(=O)c1c(F)cccc1F [Example R133] | 21% | 52% | 5% | 56
Nc1nc(NC2CCN(C(=O)c3cc(Cl)cc(Cl)c3)CC2)sc1C(=O)c1c(F)cccc1F [Example R134] | 29% | 51% | 45% | 95
COc1cc(OC)cc(C(=O)N2CCC(Nc3nc(N)c(C(=O)c4c(F)cccc4F)s3)CC2)c1 [Example R137] | 55% | 73% | 0% | 38
Cc1cc(C)cc(C(=O)N2CCC(Nc3nc(N)c(C(=O)c4c(F)cccc4F)s3)CC2)c1 [Example R142] | 67% | 83% | 86% | 99

Now from value to molecule, other results behind:

CDK2 % Inhibition at 0.03 μM [1] | CDK4 % Inhibition at 0.03 μM [2] | SMILES | HCT-116 % Inhibition at 0.1 μM [3] | HCT-116 5 Inhibition at 0.25 μM [3]
41% | 62% | N#Cc1cccc(C(=O)N2CCC(Nc3nc(N)c(C(=O)c4c(F)cccc4F)s3)CC2)c1 [Example R129] | 0% | 33
59% | 77% | Nc1nc(NC2CCN(C(=O)c3cccc(F)c3)CC2)sc1C(=O)c1c(F)cccc1F [Example R130] | 0% | 20
42% | 58% | Cc1ccc(C(=O)N2CCC(Nc3nc(N)c(C(=O)c4c(F)cccc4F)s3)CC2)cc1F [Example R131] | 1% | 44
28% | 55% | Nc1nc(NC2CCN(C(=O)c3cccc(Cl)c3)CC2)sc1C(=O)c1c(F)cccc1F [Example R132] | 15% | 60
27% | 50% | CN(C)c1cccc(C(=O)N2CCC(Nc3nc(N)c(C(=O)c4c(F)cccc4F)s3)CC2)c1 [Example R135] | 0% | 38
26% | 45% | COc1cccc(C(=O)N2CCC(Nc3nc(N)c(C(=O)c4c(F)cccc4F)s3)CC2)c1 [Example R136] | 0% | 37
67% | 70% | Nc1nc(NC2CCN(C(=O)c3cccc(O)c3)CC2)sc1C(=O)c1c(F)cccc1F [Example R138] | 0% | 40
50% | 75% | Nc1nc(NC2CCN(C(=O)c3cccc(C(F)(F)F)c3)CC2)sc1C(=O)c1c(F)cccc1F [Example R139] | 20% | 62
38% | 69% | Cc1cccc(C(=O)N2CCC(Nc3nc(N)c(C(=O)c4c(F)cccc4F)s3)CC2)c1 [Example R140] | 32% | 78
68% | 82% | Cc1ccc(C(=O)N2CCC(Nc3nc(N)c(C(=O)c4c(F)cccc4F)s3)CC2)cc1C [Example R141] | 33% | 77
